ChEMBL document CHEMBL5380773, “Novel Feleucin-K3-Derived Peptides Modified with Sulfono-γ-AA Building Blocks Targeting Pseudomonas aeruginosa and Methicillin-Resistant Staphylococcus aureus Infections” (J Med Chem, 2023)
≈ marks a conversion by molar mass, not a printed value. Calls of active or inactive are those of the source. The calls are words filed in the database; no cut-off is given here. Numbered stars: 1 amine (or outer) side, 2 acyl side, 3 side chain; on linkers, the order of the positions; unused ones are H or OH. Square brackets hold non-standard residues; d marks the D form. Peptide text beside a SMILES is read from it. * marks the point of attachment. X2 = CC(C)C[C@H](N)CN(CC(=O)[*:2])[*:1]; X1 = O=S(=O)(c1ccc(I)cc1)*

What was measured:
Cell membrane [1] = test: Induction of membrane disruption in Pseudomonas aeruginosa ATCC 27853 assessed as separation of outer membrane at 2 to 4 times MIC incubated for 24 hrs by TEM analysis; format: subcellular
Cell membrane [2] = test: Induction of membrane disruption in methicillin resistant Staphylococcus aureus ATCC 33591 assessed as separation of cytoplasmic membrane at 2 to 4 times MIC incubated for 2 to 4 hrs by TEM analysis; format: subcellular; details: time 2-4 hrs
Staphylococcus aureus [3] = test: Bactericidal activity against methicillin resistant Staphylococcus aureus ATCC 33591 at 4 times MIC after 2 to 4 hrs; format: functional, organism-based; details: time 2-4 hrs
Pseudomonas aeruginosa [4] = test: Bactericidal activity against Pseudomonas aeruginosa ATCC 27853 at 4 times MIC after 30 mins by time kill assay; format: functional, organism-based
Staphylococcus aureus [5] = test: Bactericidal activity against Staphylococcus aureus ATCC 25923 at 4 times MIC after 2 to 4 hrs; format: functional, organism-based; details: time 2-4 hrs
Staphylococcus aureus [6] = test: Induction of resistant development in methicillin resistant Staphylococcus aureus ATCC 33591 assessed as fold increase by serial passage assay; format: functional
Pseudomonas aeruginosa [7] = test: Antibiofilm activity against Pseudomonas aeruginosa ATCC 27853 assessed as reduction in biofilm structures at MBIC90 by scanning electron microscopic analysis; format: functional, organism-based
Staphylococcus aureus [8] = test: Antimicrobial activity against methicillin resistant Staphylococcus aureus ATCC 33591 infected in skin wound mouse model assessed as reduction in edema at 1 to 4 mg/kg measured on day 3 and 7 by H and E staining based assay; format: functional, organism-based; details: dose 1-4 mg/kg, time 3-7 day
Pseudomonas aeruginosa [9] = test: Antibiofilm activity against Pseudomonas aeruginosa ATCC 27853 assessed as reduction in biofilm thickness at 1 times MBIC90 incubated for 24 hrs by confocal laser scanning microscopy analysis (reference value: 90 micrometer); format: functional
Escherichia coli = test: Bactericidal activity against Escherichia coli ATCC 25922 at 1 to 2 times MIC after 2 to 3 hrs by time kill assay; format: functional, organism-based; details: time 2-3 hrs
Cell membrane [10] = test: Induction of membrane disruption in Pseudomonas aeruginosa ATCC 27853 assessed as irregular atrophy at low concentration incubated for 24 hrs by SEM analysis; format: subcellular
Staphylococcus aureus [11] = test: Antibiofilm activity against methicillin resistant Staphylococcus aureus ATCC 33591 assessed as reduction in biofilm structures at MBIC90 by scanning electron microscopic analysis; format: functional, organism-based
Cell membrane [12] = test: Induction of cytoplasmic membrane depolarization in methicillin resistant Staphylococcus aureus ATCC 33591 by DiSC35 dye based fluorescence method
Pseudomonas aeruginosa [13] = test: Antibiofilm activity against Pseudomonas aeruginosa ATCC 27853 assessed as reduction in biofilm numbers at 1 times MBIC90 incubated for 24 hrs by confocal laser scanning microscopy analysis; format: functional, organism-based
Staphylococcus aureus [14] = test: Antimicrobial activity against methicillin resistant Staphylococcus aureus ATCC 33591 incubated for 18 hrs by microdilution method; format: functional
[15] = tested on: Staphylococcus epidermidis; test: Bactericidal activity against Staphylococcus epidermidis ATCC 12228 at 4 times MIC after 0.5 hrs; format: functional, organism-based
Staphylococcus aureus [16] = test: Antimicrobial activity against methicillin resistant Staphylococcus aureus ATCC 33591 infected in skin wound mouse model assessed as reduction in ulcer at 1 to 4 mg/kg measured on day 3 and 7 by H and E staining based assay; format: functional, organism-based; details: dose 1-4 mg/kg, time 3-7 day
Cell membrane [17] = test: Induction of membrane disruption in Pseudomonas aeruginosa ATCC 27853 assessed as membrane collapse at 2 to 4 times MIC incubated for 24 hrs by TEM analysis; format: subcellular
Pseudomonas aeruginosa [18] = test: Bactericidal activity against Pseudomonas aeruginosa ATCC 27853 at 4 times MIC after 5 mins by time kill assay; format: functional, organism-based
Cell membrane [19] = test: Induction of membrane disruption in Pseudomonas aeruginosa ATCC 27853 assessed as cytoplasmic leakage at 2 to 4 times MIC incubated for 24 hrs by TEM analysis; format: subcellular
Pseudomonas aeruginosa [20] = test: Antimicrobial activity against Pseudomonas aeruginosa ATCC 27853 infected in C57BL/6J mouse assessed as reduction in IL-1beta at 2.5 mg/kg, ip measured after 72 hrs […]; format: functional, organism-based
Staphylococcus aureus [21] = test: Antimicrobial activity against methicillin resistant Staphylococcus aureus ATCC 33591 infected in BALB/c mouse assessed as reduction in tissue damage at 0.25 to 1 mg/kg infected with bacteria for 2 hrs prior to compound addition on 1, 24 and 48 hrs and measured after 72 hrs by H and E staining based assay; format: functional, organism-based; details: dose 0.25-1 mg/kg
Pseudomonas aeruginosa [22] = test: Induction of protein leakage in Pseudomonas aeruginosa ATCC 27853; format: functional, organism-based; details: TDE = time-dependent effect
Pseudomonas aeruginosa [23] = test: Antimicrobial activity against Pseudomonas aeruginosa in presence of LPS/LTA; format: functional
Cell membrane [24] = test: Induction of membrane disruption in methicillin resistant Staphylococcus aureus ATCC 33591 assessed as cytoplasmic leakage at 2 to 4 times MIC incubated for 2 to 4 hrs by TEM analysis; format: subcellular; details: time 2-4 hrs
Pseudomonas aeruginosa [25] = test: Antimicrobial activity against Pseudomonas aeruginosa ATCC 27853 infected in C57BL/6J mouse assessed as reduction in lung bacterial load at 2.5 mg/kg, ip measured after 72 hrs […] (reference value: 6.4 10^3CFU/mg); format: functional
Pseudomonas aeruginosa [26] = test: Bactericidal activity against Pseudomonas aeruginosa ATCC 27853 at 4 times MIC after 2 to 6 hrs by time kill assay; format: functional, organism-based; details: time 2-6 hrs
Staphylococcus aureus [27] = test: Antimicrobial activity against methicillin resistant Staphylococcus aureus ATCC 33591 infected in skin wound mouse model assessed as reduction in skin damage at 0.25 mg/kg measured upto 10 days by H and E staining based assay; format: functional, organism-based; details: time <= 10.0 day
Staphylococcus aureus [28] = test: Induction of resistant development in Staphylococcus aureus ATCC 25923 assessed as fold increase by serial passage assay; format: functional
Staphylococcus aureus [29] = test: Antimicrobial activity against Staphylococcus aureus in presence of LPS/LTA; format: functional
Pseudomonas aeruginosa [30] = test: Antimicrobial activity against Pseudomonas aeruginosa ATCC 27853 infected in C57BL/6J mouse assessed as reduction in IL-6 at 2.5 mg/kg, ip measured after 72 hrs […]; format: functional, organism-based
Cell membrane [31] = test: Induction of membrane disruption in methicillin resistant Staphylococcus aureus ATCC 33591 assessed as membrane collapse at 2 to 4 times MIC incubated for 2 to 4 hrs by TEM analysis; format: subcellular; details: time 2-4 hrs
Erythrocyte = test: Hemolytic activity against mouse red blood cells incubated for 1 hr; format: toxicity, cell-based
Cell membrane [32] = test: Induction of membrane disruption in methicillin resistant Staphylococcus aureus ATCC 33591 assessed as cell lysis at high concentration incubated for 24 hrs by SEM analysis; format: subcellular
Pseudomonas aeruginosa [33] = test: Antimicrobial activity against Pseudomonas aeruginosa ATCC 27853 incubated for 18 hrs by microdilution method; format: functional
Cell membrane [34] = test: Induction of membrane disruption in methicillin resistant Staphylococcus aureus ATCC 33591 assessed as membrane collapse at high concentration incubated for 24 hrs by SEM analysis; format: subcellular
Staphylococcus aureus [35] = test: Antimicrobial activity against methicillin resistant Staphylococcus aureus ATCC 33591 infected in skin wound mouse model assessed as reduction in skin wound bacterial load at 0.25 to 4 mg/kg measured on day 3 and 7 […]; format: functional, organism-based; details: dose 0.25-4 mg/kg, time 3-7 day
[36] = tested on: Staphylococcus epidermidis; test: Antibiofilm activity against Staphylococcus epidermidis ATCC 12228 at 2 to 4 ug/ml incubated for 24 hrs by crystal violet staining based microplate reader analysis; format: functional; details: dose 2-4 µg/ml, at 2 to 4 µg/mL
Cell membrane [37] = test: Induction of membrane disruption in Pseudomonas aeruginosa ATCC 27853 assessed as membrane collapse at high concentration incubated for 24 hrs by SEM analysis; format: subcellular

## CC(C)C[C@H](N)CN(CC(=O)N[C@@H](CCCCN)C(=O)N[C@@H](CC(C)C)C(=O)N[C@@H](CC(C)C)C(=O)N[C@@H](CCCCN)C(=O)N[C@@H](CCCCN)C(=O)N[C@@H](CC(C)C)C(=O)N[C@@H](CC(C)C)C(N)=O)S(=O)(=O)c1ccc(I)cc1 (X1-[X2]KLLKKLL-NH2)
Cell membrane [1]
  Activity: Active
Cell membrane [2]
  Activity: Active
Staphylococcus aureus [3]
  Activity: Active
Pseudomonas aeruginosa [4]
  Activity: Active
Staphylococcus aureus [5]
  Activity: Active
Staphylococcus aureus [6]
  fold change (FC): 2
Pseudomonas aeruginosa [7]
  Activity: Active
Staphylococcus aureus [8]
  Activity: Active
Pseudomonas aeruginosa [9]
  Activity: 20 um
Escherichia coli
  Activity: Active
Cell membrane [10]
  Activity: Active
Staphylococcus aureus [11]
  Activity: Active
Cell membrane [12]
  Activity: Active
Pseudomonas aeruginosa [13]
  Activity: Active
Staphylococcus aureus [14]
  MIC: 2.8 µg/mL (≈ 2.19 µM)
[15]
  Activity: Active
Staphylococcus aureus [16]
  Activity: Active
Cell membrane [17]
  Activity: Active
Pseudomonas aeruginosa [18]
  Activity: Active
Cell membrane [19]
  Activity: Active
Pseudomonas aeruginosa [20]
  Activity: Active
Staphylococcus aureus [21]
  Activity: Active
Pseudomonas aeruginosa [22]
  Activity: Tde
Pseudomonas aeruginosa [23]
  MIC: ≥ 64 µg/mL
Cell membrane [24]
  Activity: Active
Pseudomonas aeruginosa [25]
  Activity: 3 10^3CFU/mg
Pseudomonas aeruginosa [26]
  Activity: Active
Staphylococcus aureus [27]
  Activity: Active
Staphylococcus aureus [28]
  fold change (FC): 2
Staphylococcus aureus [29]
  MIC: ≥ 16 µg/mL
Pseudomonas aeruginosa [30]
  Activity: Active
Cell membrane [31]
  Activity: Active
Erythrocyte
  MHC: 256 µg/mL
Cell membrane [32]
  Activity: Active
Pseudomonas aeruginosa [33]
  MIC: 3 µg/mL (≈ 2.35 µM)
Cell membrane [34]
  Activity: Active
Staphylococcus aureus [35]
  Activity: Active
[36]
  Activity: 50%
Cell membrane [37]
  Activity: Active
